Where two headings read alike, the source gives them in different places. Where a SMILES comes first, the peptide text is derived from it. Bridges are numbered along the chain shown (N, C = ends).
How the values were obtained:
[1] = system: MDA-MB-231 cells; assay: RNA sequencing, differentially expressed genes; format: cell-based, human; details: 12.5 μM, 48 h
Procedure: Total RNA was extracted from untreated (C) MDA-MB-231 cells and MDA-MB-231 cells treated with a concentration of 12.5 μM JZTX-14 (GL) for 48 h using TRIzol reagent. RNA concentration was first quantified using a NanoDrop 2000 spectrophotometer and further accurately quantified using an Agilent 2100/4200 for RNA sample mass and concentration. The extracted total RNA was stored at −70°C. The sample mRNA was enriched with magnetic beads with Oligo (dT), and then the mRNA was broken into short fragments which subsequently used as a template to synthesize the first strand of cDNA with six-base random primers. The second cDNA strand was synthesized by adding buffer, dNTPs, and enzymes, and the acquired double-stranded cDNA was purified, end-repaired, A-tailed, and connected to sequencing junctions. Next, the fragment size was selected and the cDNA library was enriched by PCR amplification, followed by accurate qualification of the effective concentration of the library using qPCR. […]
The reads after rRNA removal were compared with the reference genome using Hisat2 software. Gene level quantification was performed separately for each sample using FeatureCount and combined to obtain the gene expression matrix of all samples. Correlation coefficients between samples were calculated based on the expression values (FPKM) of genes in each sample. […]

[2] = system: Nav1.5; format: cell-based; details: 50 ms depolarisation to −30 mV, holding potential −100 mV, room temperature (22°C–25°C), mean ± SEM
Procedure: Sodium currents in experimental cells were recorded at room temperature (22°C–25°C) using an EPC-10 patch-clamp amplifier (HEKA, Germany) in a whole-cell patch-clamp configuration. Recording pipettes were made from borosilicate glass capillaries (VWR, United States) using a PC-10 puller (Narishige, Japan). The inner solution (mM): KCl 130, NaCl 15, CaCl2 0.37, MgCl2 1 EGTA 1, HEPES 10, pH 7.2, resistance was measured as 1.8 MO. The outer solution was composed of (mM): NaCl 140, KCl 3, MgCl2 1, CaCl2 1, HEPES 10, pH 7.2. To minimize voltage errors, the series resistance compensation was set to 80%. The P/4 protocol was used to subtract the linear capacitance and leakage current. Experimental data were acquired and analyzed using the pulse fit 8.0 program (HEKA, Germany). The needed concentrations of toxin dissolved in external solution were applied to the cell surface by microinjector.
To determine the biological activity of synthetic and natural JZTX-14 on Nav1.5, we observed their effects on HEK293T cells heterologously expressing Nav1.5 using a whole-cell voltage-clamp configuration. The current traces were induced by a 50 ms depolarisation potential of −30 mV at a holding potential of −100 mV. Currents were recorded by adding 0.1 μM and 0.5 μM of JZTX-14 to the solution.

SMILES: CC[C@H](C)[C@H](NC(=O)[C@@H]1CSSC[C@@H]2NC(=O)[C@@H]3CCCN3C(=O)[C@@H]3CCCN3C(=O)[C@H](CCC(N)=O)NC(=O)CNC(=O)[C@@H]3CCCN3C(=O)[C@H](Cc3c[nH]cn3)NC(=O)[C@@H]3CSSC[C@H](NC(=O)[C@H](C)NC(=O)[C@H](CC(C)C)NC(=O)CNC(=O)[C@H](CO)NC(=O)[C@H](CSSC[C@H](NC(=O)CN)C(=O)N[C@@H](CCC(N)=O)C(=O)N[C@@H](CCCCN)C(=O)N[C@@H](Cc4ccccc4)C(=O)N[C@@H](Cc4ccccc4)C(=O)N[C@@H](Cc4c[nH]c5ccccc45)C(=O)N[C@@H]([C@@H](C)O)C(=O)N3)NC2=O)C(=O)N[C@@H]([C@@H](C)O)C(=O)N[C@@H](Cc2c[nH]c3ccccc23)C(=O)N2CCC[C@H]2C(=O)N[C@@H]([C@@H](C)O)C(=O)N[C@@H](CCC(=O)O)C(=O)N[C@@H]([C@@H](C)CC)C(=O)N1)C(=O)N[C@@H](CC(C)C)C(N)=O [JZTX-14] (H-GCQKFFWTCHPGQPPCCSGLACTWPTEICIL-NH2; disulfide 2-17, 9-22, 16-29)
- Downregulated genes associated with migration and invasion [1]: ANGPTL4, S100A4, GJB3, FBXO2, PLAC1, and HMGN5
- Upregulated genes associated with migration and invasion [1]: IL-24-F and SERPINB2
- Inhibition of Nav1.5 current ([2]; 0.1 μM, listed as Synthetic JZTX-14, 0.1 µM): 30.3% ± 2.5%
- Inhibition of Nav1.5 current ([2]; 0.5 μM, listed as Synthetic JZTX-14, 0.5 µM): 53.4% ± 2.5%
